Measured values from patent US7829080B2, “Stabilization method of reduced coenzyme Q10” (Kaneka Corporation, priority 2006, dated 2010).

Assays:
[1] = Plasma total coenzyme Q after 14-day oral administration (Example 3); type: in vivo, Crj:CD (SD) rats; details: male and female rats, 600 mg/kg oral in corn oil once a day for 14 days, 24 hr after final administration; compared to the reduced coenzyme Q10 administration group
Experimental: A first group was used as a control group, and corn oil (3 ml/kg) was orally administered once a day for 14 days. […] At 24 hr after the final administration, blood samples were collected to give plasma samples. Using HPLC, the concentration of coenzyme Q in the obtained plasma was measured. The results are shown in the bar graph of FIG. 1.

[2] = Oral absorbability test (Example 4); type: in vivo, Crj:CD (SD) rats; details: male rats, 25 mg/ml soy bean oil solution at 4.0 ml/kg, 2 hr from administration
Experimental: Crj:CD (SD) rats (about 77-week-old, 10 male rats) were prepared. Reduced coenzyme Q10 was orally administered to 5 of them, and a mixture of reduced coenzyme Q10 and reduced coenzyme Q11 (containing 0.1% of reduced coenzyme Q11) was orally administered to the remaining 5 of them, each as a 25 mg/ml soy bean oil solution at a dose of 4.0 ml/kg. At 2 hr from the administration, blood was drawn and centrifuged to give plasma samples. Using HPLC, the concentration of coenzyme Q10 in the obtained plasma was measured. The results are shown in the bar graph of FIG. 2. As is clear from FIG. 2, the concentration of coenzyme Q10 in the plasma was about 3.4 μg/ml resulting from the administration of both reduced coenzyme Q10 and a mixture of reduced coenzyme Q10 and reduced coenzyme Q11.

concentration of total coenzyme Q in the plasma [1] | Structure (SMILES) | concentration of coenzyme Q10 in the plasma [2]
increased | COc1c(O)c(C)c(C/C=C(\C)CC/C=C(\C)CC/C=C(\C)CC/C=C(\C)CC/C=C(\C)CC/C=C(\C)CC/C=C(\C)CC/C=C(\C)CCC=C(C)C)c(O)c1OC [reduced coenzyme Q9] | 
 | COc1c(O)c(C)c(C/C=C(\C)CC/C=C(\C)CC/C=C(\C)CC/C=C(\C)CC/C=C(\C)CC/C=C(\C)CC/C=C(\C)CC/C=C(\C)CC/C=C(\C)CCC=C(C)C)c(O)c1OC [reduced coenzyme Q10] | about 3.4 μg/ml
